Measurements reported in ChEMBL document CHEMBL1201862, “PubChem BioAssay data set” (2004).
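Exposure lasted 48 hours, with cells grown in 96-well plates and compounds tested at five concentrations. GI50 is the concentration that inhibits growth by half.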 The source made the active and inactive calls. Rule as the data show it: active = GI50 up to about 1.1 µM and inactive = higher.

Key:
Experiment in all cases: growth of human tumour cells (NCI), 48 h
[1] = test system: MOLT-4
[2] = test system: A549
[3] = test system: NCI-H522
[4] = test system: SF-295
[5] = test system: CAKI-1
[6] = test system: UO-31
[7] = test system: SNB-19
[8] = test system: NCI-H460
[9] = test system: SK-MEL-5
[10] = test system: UACC-62
[11] = test system: HT-29
[12] = test system: OVCAR-4
[13] = test system: SNB-75
[14] = test system: UACC-257
[15] = test system: RXF 393
[16] = test system: RPMI-8226
[17] = test system: K562
[18] = test system: CCRF-CEM
[19] = test system: SN12C
[20] = test system: SK-MEL-28

| SMILES | GI50 [1] | GI50 [2] | GI50 [3] | GI50 [4] | GI50 [5] | GI50 [6] | GI50 [7] | GI50 [8] | GI50 [9] | GI50 [10] | GI50 [11] | GI50 [12] | GI50 [13] | GI50 [14] | GI50 [15] | GI50 [16] | GI50 [17] | GI50 [18] | GI50 [19] | GI50 [20] |
| --- | --- | --- | --- | --- | --- | --- | --- | --- | --- | --- | --- | --- | --- | --- | --- | --- | --- | --- | --- | --- |
| CC(=N/NC(=S)Nc1c(C)n(C)n(-c2ccccc2)c1=O)/C(C)=N\NC(=S)Nc1c(C)n(C)n(-c2ccccc2)c1=O | > 100 µM (inactive) | > 100 µM (inactive) | > 100 µM (inactive) | > 100 µM (inactive) | > 100 µM (inactive) | > 100 µM (inactive) | > 100 µM (inactive) | > 100 µM (inactive) | > 100 µM (inactive) | > 100 µM (inactive) | > 100 µM (inactive) | > 100 µM (inactive) | > 100 µM (inactive) | > 100 µM (inactive) | > 100 µM (inactive) | – | – | – | – | – |
| Oc1cc2cc(O)nc(O)c2c(O)n1 | > 100 µM (inactive) | > 100 µM (inactive) | > 100 µM (inactive) | > 100 µM (inactive) | > 100 µM (inactive) | > 100 µM (inactive) | > 100 µM (inactive) | > 100 µM (inactive) | > 100 µM (inactive) | > 100 µM (inactive) | > 100 µM (inactive) | > 100 µM (inactive) | > 100 µM (inactive) | > 100 µM (inactive) | > 100 µM (inactive) | > 100 µM (inactive) | > 100 µM (inactive) | > 100 µM (inactive) | > 100 µM (inactive) | – |
| CC1CC2C3CCC4=CC(=O)C=CC4(C)C3(F)C(O)CC2(C)C1(O)C(=O)COP(=O)(O)O (stereo not drawn) | > 62.7 µM (inactive) | > 100 µM (inactive) | > 100 µM (inactive) | > 100 µM (inactive) | > 100 µM (inactive) | > 100 µM (inactive) | > 100 µM (inactive) | > 100 µM (inactive) | > 100 µM (inactive) | > 100 µM (inactive) | > 100 µM (inactive) | > 100 µM (inactive) | > 100 µM (inactive) | > 100 µM (inactive) | > 100 µM (inactive) | 3.42 µM (inactive) | > 100 µM (inactive) | 0.144 µM (active) | – | > 100 µM (inactive) |
